Assay results: patent US20240156889A1, “A METHOD FOR REDUCING ANIMAL WEIGHT” (BEIJING WEHAND-BIO PHARMACEUTICAL CO., LTD, priority 2021, published 2024)

Assay: Clinical Experiment 2: weight of type 2 diabetics, acarbose-controlled double-blind study
Format: in vivo, human
Conditions: SZ-A = tablets of Embodiment 1 extract, 50 mg total alkaloids each
Excerpt: • 1. Objective • Effect of Ramulus Mori extract on reducing weight of diabetics. • 2. Experiment method • 2.1 Grouping • Random, double-blind and double-simulation, parallel control of acarbose tablets, multicenter, non-inferiority were adopted in the study design. A total of 600 patients with type 2 diabetes (aged 18 to 70 years old, 19 kg/m^2≤BMI≤30 kg/m^2, 7%≤HbAlC≤10%) and poor blood glucose control were included, and were randomly divided into a total alkaloid tablet group (SZ-A, N=360) and a acarbose (Glucobay®) group (CON, N=240). All signed informed consents. […] (1) From the Pt to the 24th week of administration, the height, weight and weight gain of each group were observed and recorded every day. […]

SMILES: C[C@H]1O[C@H](O[C@H]2[C@H](O)[C@@H](O)[C@@H](O[C@H]3[C@H](O)[C@@H](O)C(O)O[C@@H]3CO)O[C@@H]2CO)[C@H](O)[C@@H](O)[C@@H]1N[C@H]1C=C(CO)[C@@H](O)[C@H](O)[C@H]1O (some centres unmarked) [acarbose]
- average change of weight (type 2 diabetics with BMI≥28 kg/m^2, after 8 weeks of administration): 0.210 kg
- average change of weight (type 2 diabetics with BMI≥28 kg/m^2, after 24 weeks of administration): -0.182 kg
